Measurements reported in US11033535B2, “Oxadiazoles and thiadiazoles as TGF-β inhibitors” (Southern Research Institute, priority 2017, dated 2021).
Like-named read-outs stand apart in the source and are kept apart here.

Experiment: Pharmacokinetic evaluation following a single oral and intravenous administration
Format: in vivo, CD1 mouse
Description: A NMP stock solution was prepared by adding 1.136 mL of NMP to 5.68 mg of compound no. 42140 with vortexing and sonification, to obtain a solution with a concentration at 5 mg/mL of 42140:01. Next, to prepare an intravenous formulation, 0.100 mL of the 5 mg/mL stock solution was placed in a new vial. 0.100 mL of NMP and 0.400 mL of PEG400 were added with vortexing and sonification, followed by addition of 0.400 mL of saline with vortexing and sonification. […] 42140:01. Alternatively, to prepare an oral formulation, 0.200 mL of the 5 mg/mL stock solution was placed in a new vial. 0.400 mL of PEG400 was added with vortexing and sonification, followed by addition of 0.400 mL of saline with vortexing and sonifiction. […] 42140:01.
(§1) Briefly, the desired serial concentrations of working solutions were achieved by diluting a stock solution of the compound with 100% acetonitrile. 3 μL of working solutions (5, 10, 20, 50, 100, 500, 1000, 5000, 10000 ng/mL) were added to 30 μL of the blank CD1 mouse plasma to achieve calibration standards of 0.5-1000 ng/mL (0.5, 1, 2, 5, 10, 50, 100, 500, 1000 ng/mL) in a total volume of 33 μL. Five quality control samples at 1 ng/mL, 2 ng/mL, 5 ng/mL, 50 ng/mL and 800 ng/mL for plasma were prepared independently of those used for the calibration curves. These QC samples were prepared on the day of analysis in the same way as calibration standards.
Next, 33 μL standards, 33 μL QC samples, and 33 μL unknown samples (30 μL plasma with 3 μL blank solution) were added to 200 μL of acetonitrile containing IS mixture for precipitating protein, respectively. Then the samples were vortexed for 30 s. After centrifugation at 4 degree Celsius, 4000 rpm for 15 min, 3 μL of supernatant was injected into the LC/MS/MS system for quantitative analysis.
HPLC analysis was performed using 100% water with 0.1% formic acid (Solution A) and 100% acetonitrile with 0.1% formic acid (Solution B) with a flow rate of 0.6 mL/min.
A NMP stock solution was prepared by adding 2.092 mL of NMP to 10.46 mg of […] with vortexing and sonification, to obtain a solution with a concentration at 5 mg/mL of […]. Next, to prepare an intravenous formulation, 0.100 mL of the 5 mg/mL stock solution was placed in a new vial. 0.100 mL of NMP and 0.400 mL of PEG400 were added with vortexing and sonification, followed by addition of 0.400 mL of saline with vortexing and sonification. […] 42320:01. Alternatively, to prepare an oral formulation, 0.200 mL of the 5 mg/mL stock solution was placed in a new vial. 0.400 mL of PEG400 was added with vortexing and sonification, followed by addition of 0.400 mL of saline with vortexing and sonifiction. […] 42320:01.
as §1, with “50 ng/mL,” for “50 ng/mL”

[1] = CD1, mouse, plasma, po, 5 mg/kg, Table 11, PO Dose: 5 mg/kg, Mouse 4, read-out: Concentration
[2] = CD1, mouse, plasma, po, 5 mg/kg, Table 11, PO Dose: 5 mg/kg, Mouse 5, read-out: Concentration
[3] = CD1, mouse, plasma, po, 5 mg/kg, Table 11, PO Dose: 5 mg/kg, Mouse 6, read-out: Concentration
[4] = CD1, mouse, plasma, po, 5 mg/kg, Table 11, PO Dose: 5 mg/kg, mean, read-out: Concentration, Mean
[5] = Table 10, IV Dose: 1 mg/kg, Mouse 1
[6] = Table 10, IV Dose: 1 mg/kg, Mouse 2
[7] = Table 10, IV Dose: 1 mg/kg, Mouse 3
[8] = Table 10, IV Dose: 1 mg/kg, mean
[9] = Table 12, PO Dose: 5 mg/kg, Mouse 4
[10] = Table 12, PO Dose: 5 mg/kg, Mouse 5
[11] = Table 12, PO Dose: 5 mg/kg, Mouse 6
[12] = Table 12, PO Dose: 5 mg/kg, mean

## CC(=O)N[C@@H](Cc1ccc(CN(C)C)cc1)c1nnc(-c2cccc(OC(F)(F)F)c2)s1 [Compound 42320, N-(2-(4-((dimethylamino)methyl)phenyl)-1-(5-(3-(trifluoromethoxy)phenyl)-1,3,4-thiadiazol-2-yl)ethyl)acetamide]
[1]
  concentration at 2 h: 165 ng/mL
  concentration at 4 h: 88.4 ng/mL
  concentration at 8 h: 49 ng/mL
[2]
  concentration at 2 h: 100 ng/mL
  concentration at 4 h: 64.2 ng/mL
  concentration at 8 h: 37.2 ng/mL
[3]
  concentration at 2 h: 105 ng/mL
  concentration at 4 h: 77.7 ng/mL
  concentration at 8 h: 37.4 ng/mL
[4]
  concentration at 2 h: 123 ng/mL
  concentration at 4 h: 76.8 ng/mL
  concentration at 8 h: 41.2 ng/mL
CD1, mouse, plasma, po, 5 mg/kg, Table 11, PO Dose: 5 mg/kg, 24 h, Mouse 6, read-out: Concentration
  concentration at 24 h: 3.26 ng/mL
CD1, mouse, plasma, po, 5 mg/kg, Table 12, PO Dose: 5 mg/kg, Mouse 4, read-out: AUCInf
  AUC(0-inf): 1110 ng·h/mL
CD1, mouse, plasma, po, 5 mg/kg, Table 12, PO Dose: 5 mg/kg, Mouse 4, read-out: AUClast
  AUC(0-t): 856 ng·h/mL
CD1, mouse, plasma, po, 5 mg/kg, Table 12, PO Dose: 5 mg/kg, Mouse 4, read-out: Cmax
  Cmax: 201 ng/mL
CD1, mouse, plasma, po, 5 mg/kg, Table 12, PO Dose: 5 mg/kg, Mouse 4, read-out: MRTInf—obs
  MRT inf: 5.27 h
CD1, mouse, plasma, po, 5 mg/kg, Table 12, PO Dose: 5 mg/kg, Mouse 4, read-out: T1/2 (converted)
  half-life: 3.56 h
CD1, mouse, plasma, po, 5 mg/kg, Table 12, PO Dose: 5 mg/kg, Mouse 5, read-out: AUCInf
  AUC(0-inf): 801 ng·h/mL
CD1, mouse, plasma, po, 5 mg/kg, Table 12, PO Dose: 5 mg/kg, Mouse 5, read-out: AUClast
  AUC(0-t): 569 ng·h/mL
CD1, mouse, plasma, po, 5 mg/kg, Table 12, PO Dose: 5 mg/kg, Mouse 5, read-out: Cmax
  Cmax: 121 ng/mL
CD1, mouse, plasma, po, 5 mg/kg, Table 12, PO Dose: 5 mg/kg, Mouse 5, read-out: MRTInf—obs
  MRT inf: 6.33 h
CD1, mouse, plasma, po, 5 mg/kg, Table 12, PO Dose: 5 mg/kg, Mouse 5, read-out: T1/2 (converted)
  half-life: 4.31 h
CD1, mouse, plasma, po, 5 mg/kg, Table 12, PO Dose: 5 mg/kg, Mouse 6, read-out: AUCInf
  AUC(0-inf): 961 ng·h/mL
CD1, mouse, plasma, po, 5 mg/kg, Table 12, PO Dose: 5 mg/kg, Mouse 6, read-out: AUClast
  AUC(0-t): 940 ng·h/mL
CD1, mouse, plasma, po, 5 mg/kg, Table 12, PO Dose: 5 mg/kg, Mouse 6, read-out: Cmax
  Cmax: 122 ng/mL
CD1, mouse, plasma, po, 5 mg/kg, Table 12, PO Dose: 5 mg/kg, Mouse 6, read-out: MRTInf—obs
  MRT inf: 5.84 h
CD1, mouse, plasma, po, 5 mg/kg, Table 12, PO Dose: 5 mg/kg, Mouse 6, read-out: T1/2 (converted)
  half-life: 4.42 h
CD1, mouse, plasma, po, 5 mg/kg, Table 12, PO Dose: 5 mg/kg, mean, read-out: AUCInf, Mean
  AUC(0-inf): 956 ng·h/mL
CD1, mouse, plasma, po, 5 mg/kg, Table 12, PO Dose: 5 mg/kg, mean, read-out: AUClast, Mean
  AUC(0-t): 788 ng·h/mL
CD1, mouse, plasma, po, 5 mg/kg, Table 12, PO Dose: 5 mg/kg, mean, read-out: Cmax, Mean
  Cmax: 148 ng/mL
CD1, mouse, plasma, po, 5 mg/kg, Table 12, PO Dose: 5 mg/kg, mean, read-out: MRTInf—obs, Mean
  MRT inf: 5.81 h
CD1, mouse, plasma, po, 5 mg/kg, Table 12, PO Dose: 5 mg/kg, mean, read-out: T1/2, Mean (converted)
  half-life: 4.1 h
CD1, plasma, Table 12, PO Dose: 5 mg/kg, Mouse 4
  Tmax: 0.5 h
Table 9, IV Dose: 1 mg/kg, 24 h, Mouse 1
  Concentration: BLOQ
Table 9, IV Dose: 1 mg/kg, 24 h, Mouse 2
  Concentration: BLOQ
Table 9, IV Dose: 1 mg/kg, 24 h, Mouse 3
  Concentration: BLOQ
[5]
  AUClast/D: 169 h·ng/mL per mg/kg
  AUC—% Extrap—obs: 7.32%
  Cl_obs: 91.3 mL/min/kg
[6]
  AUClast/D: 153 h·ng/mL per mg/kg
  AUC—% Extrap—obs: 7.31%
  Cl_obs: 101 mL/min/kg
[7]
  AUClast/D: 172 h·ng/mL per mg/kg
  AUC—% Extrap—obs: 10.6%
  Cl_obs: 86.3 mL/min/kg
[8]
  AUClast/D, Mean: 165 h·ng/mL per mg/kg
  AUC—% Extrap—obs, Mean: 8.4%
  C0, Mean: 100 ng/mL
  Cl_obs, Mean: 93 mL/min/kg
Table 11, PO Dose: 5 mg/kg, 24 h, Mouse 4
  Concentration: BLOQ
Table 11, PO Dose: 5 mg/kg, 24 h, Mouse 5
  Concentration: BLOQ
[9]
  AUClast/D: 171 h·ng/mL per mg/kg
  AUC—% Extrap—obs: 22.7%
  F: 104%
[10]
  AUClast/D: 114 h·ng/mL per mg/kg
  AUC—% Extrap—obs: 28.9%
  F: 69.0%
[11]
  AUClast/D: 188 h·ng/mL per mg/kg
  AUC—% Extrap—obs: 2.16%
  F: 107%
[12]
  AUClast/D, Mean: 158 h·ng/mL per mg/kg
  AUC—% Extrap—obs, Mean: 17.9%
  F, Mean: 93%
